First: NCc1ccc(C(=O)O)cc1
Second: CCc1ccc(C(=O)O)cc1
The logP of the first is lower: 1.03 for the first, 2.89 for the second.

Going from `O=C(O)c1ccc(Cl)c(Cl)c1` to `O=C(O)c1cc(Cl)ccc1Cl`, the logP falls from 3.25 to 2.82.

First: O=Cc1ccc(C(=O)O)cc1
Second: CN(C)c1ccc(C(=O)O)cc1
The logP of the first is higher: 1.76 for the first, 1.28 for the second.

Going from `CCCOc1ccc(C(=O)O)cc1` to `CCCc1ccc(C(=O)O)cc1`, the logP rises from 3.09 to 3.42.

Compared with `CC(=O)Nc1cccc(C(=O)O)c1`, `[N-]=[N+]=Nc1ccc(C(=O)O)cc1` is higher in logP: 1.32 for the first, 2.54 for the second.

Reference: the OPERA property sets (Mansouri et al. 2018)
